According to patent US11311522B1 (Cavion, Inc., priority 2018, dated 2022):

Test: PN001/Part I: safety and tolerability
Type: in vivo, human
Excerpt: Safety was monitored throughout by adverse events, vital signs, and repeated clinical and laboratory evaluations. […] All adverse events were mild or moderate and severity and transient.

In the case of CC(C)c1ccc(CC(=O)N[C@H](C)c2ccc(OCC(F)(F)F)cn2)cc1 [CX-8998], the Abnormal physical sensation (12 mg) is reported as 0 n (%), the “At least 1 adverse event” value (12 mg) is reported as 9 (75.0) n (%) and the Dizziness (12 mg) is reported as 1 (8.3) n (%). For the same molecule, the Drowsiness (12 mg) was 1 (8.3) n (%), the Elevated mood (12 mg) was 1 (8.3) n (%) and the Euphoric mood (12 mg) was 2 (16.7) n (%). The “Eye Disorders” value (12 mg) was 1 (8.3) n (%), the Fatigue (12 mg) was 0 n (%) and the Feeling abnormal (12 mg) was 2 (16.7) n (%). For the same molecule, the Floating feeling (12 mg) was 0 n (%), the “Gastro-intestinal Disorders” value (12 mg) was 3 (25.0) n (%) and the Hangover effect (12 mg) was 0 n (%). For the same molecule, the Headache (12 mg) was 2 (16.7) n (%), the Indifference (12 mg) was 0 n (%) and the “Injury, Poisoning and Procedural Complications” value (12 mg) was 0 n (%). The Insomnia (12 mg) was 0 n (%), the Intoxication (12 mg) was 0 n (%) and the Irritability (12 mg) was 0 n (%). For the same molecule, the Lethargy (12 mg) was 1 (8.3) n (%), the “Nervous System Disorders” value (12 mg) was 5 (41.7) n (%) and the Paraesthesia (12 mg) was 0 n (%). The Paraesthesia oral (12 mg) was 1 (8.3) n (%), the Paraesthesia tongue (12 mg) was 2 (16.7) n (%) and the “Psychiatric Disorders” value (12 mg) was 4 (33.3) n (%). For the same molecule, the Racing thoughts (12 mg) was 1 (8.3) n (%), the Relaxed (12 mg) was 4 (33.3) n (%) and the Sensory disturbance (12 mg) was 0 n (%). The Vision blurred (12 mg) was 0 n (%), the Visual disturbance (12 mg) was 1 (8.3) n (%) and the Vivid dreams (12 mg) was 0 n (%). The Abnormal physical sensation (12 mg evening) was 0 n (%), the “At least 1 adverse event” value (12 mg evening) was 4 (66.7) n (%) and the Dizziness (12 mg evening) was 0 n (%). For the same molecule, the Drowsiness (12 mg evening) was 1 (16.7) n (%), the Elevated mood (12 mg evening) was 0 n (%) and the Euphoric mood (12 mg evening) was 0 n (%). The “Eye Disorders” value (12 mg evening) was 3 (50.0) n (%), the Fatigue (12 mg evening) was 0 n (%) and the Feeling abnormal (12 mg evening) was 0 n (%). For the same molecule, the Floating feeling (12 mg evening) was 0 n (%), the “Gastro-intestinal Disorders” value (12 mg evening) was 1 (16.7) n (%) and the Hangover effect (12 mg evening) was 0 n (%). The Headache (12 mg evening) was 1 (16.7) n (%), the Indifference (12 mg evening) was 0 n (%) and the “Injury, Poisoning and Procedural Complications” value (12 mg evening) was 0 n (%). For the same molecule, the Insomnia (12 mg evening) was 0 n (%), the Intoxication (12 mg evening) was 0 n (%) and the Irritability (12 mg evening) was 0 n (%). The Lethargy (12 mg evening) was 1 (16.7) n (%), the “Nervous System Disorders” value (12 mg evening) was 3 (50.0) n (%) and the Paraesthesia (12 mg evening) was 0 n (%). The Paraesthesia oral (12 mg evening) was 0 n (%), the Paraesthesia tongue (12 mg evening) was 1 (16.7) n (%) and the “Psychiatric Disorders” value (12 mg evening) was 2 n (%). The Racing thoughts (12 mg evening) was 0 n (%), the Relaxed (12 mg evening) was 0 n (%) and the Sensory disturbance (12 mg evening) was 0 n (%). The Vision blurred (12 mg evening) was 0 n (%), the Visual disturbance (12 mg evening) was 3 (50.0) n (%) and the Vivid dreams (12 mg evening) was 2 n (%). The Abnormal physical sensation (16 mg evening) was 0 n (%), the “At least 1 adverse event” value (16 mg evening) was 9 (75.0) n (%) and the Dizziness (16 mg evening) was 1 (8.3) n (%). For the same molecule, the Drowsiness (16 mg evening) was 1 (8.3) n (%), the Elevated mood (16 mg evening) was 3 (25.0) n (%) and the Euphoric mood (16 mg evening) was 3 (25.0) n (%). For the same molecule, the “Eye Disorders” value (16 mg evening) was 1 (8.3) n (%), the Fatigue (16 mg evening) was 2 (16.7) n (%) and the Feeling abnormal (16 mg evening) was 0 n (%). The Floating feeling (16 mg evening) was 1 (8.3) n (%), the “Gastro-intestinal Disorders” value (16 mg evening) was 1 (8.3) n (%) and the Hangover effect (16 mg evening) was 2 (16.7) n (%). The Headache (16 mg evening) was 4 (33.3) n (%), the Indifference (16 mg evening) was 2 (16.7) n (%) and the “Injury, Poisoning and Procedural Complications” value (16 mg evening) was 0 n (%). For the same molecule, the Insomnia (16 mg evening) was 0 n (%), the Intoxication (16 mg evening) was 0 n (%) and the Irritability (16 mg evening) was 1 (8.3) n (%). For the same molecule, the Lethargy (16 mg evening) was 1 (8.3) n (%), the “Nervous System Disorders” value (16 mg evening) was 8 (66.7) n (%) and the Paraesthesia (16 mg evening) was 1 (8.3) n (%). The Paraesthesia oral (16 mg evening) was 0 n (%), the Paraesthesia tongue (16 mg evening) was 0 n (%) and the “Psychiatric Disorders” value (16 mg evening) was 8 (66.7) n (%). For the same molecule, the Racing thoughts (16 mg evening) was 2 (16.7) n (%), the Relaxed (16 mg evening) was 2 (16.7) n (%) and the Sensory disturbance (16 mg evening) was 1 (8.3) n (%). For the same molecule, the Vision blurred (16 mg evening) was 1 (8.3) n (%), the Visual disturbance (16 mg evening) was 0 n (%) and the Vivid dreams (16 mg evening) was 8 (66.7) n (%). For the same molecule, the Abnormal physical sensation (20 mg evening) was 1 (16.7) n (%), the “At least 1 adverse event” value (20 mg evening) was 6 (100) n (%) and the Dizziness (20 mg evening) was 0 n (%). The Drowsiness (20 mg evening) was 2 (33.3) n (%), the Elevated mood (20 mg evening) was 1 (16.7) n (%) and the Euphoric mood (20 mg evening) was 3 (50.0) n (%). The “Eye Disorders” value (20 mg evening) was 1 (16.7) n (%), the Fatigue (20 mg evening) was 0 n (%) and the Feeling abnormal (20 mg evening) was 0 n (%). For the same molecule, the Floating feeling (20 mg evening) was 0 n (%), the “Gastro-intestinal Disorders” value (20 mg evening) was 0 n (%) and the Hangover effect (20 mg evening) was 0 n (%). The Headache (20 mg evening) was 5 (83.3) n (%), the Indifference (20 mg evening) was 0 n (%) and the “Injury, Poisoning and Procedural Complications” value (20 mg evening) was 2 (33.3) n (%). The Insomnia (20 mg evening) was 1 (16.7) n (%), the Intoxication (20 mg evening) was 2 (33.3) n (%) and the Irritability (20 mg evening) was 1 (16.7) n (%). The Lethargy (20 mg evening) was 2 (33.3) n (%), the “Nervous System Disorders” value (20 mg evening) was 6 (100) n (%) and the Paraesthesia (20 mg evening) was 1 (16.7) n (%). For the same molecule, the Paraesthesia oral (20 mg evening) was 0 n (%), the Paraesthesia tongue (20 mg evening) was 0 n (%) and the “Psychiatric Disorders” value (20 mg evening) was 5 (83.3) n (%). The Racing thoughts (20 mg evening) was 0 n (%), the Relaxed (20 mg evening) was 4 (66.7) n (%) and the Sensory disturbance (20 mg evening) was 2 (33.3) n (%). The Vision blurred (20 mg evening) was 1 (16.7) n (%), the Visual disturbance (20 mg evening) was 0 n (%) and the Vivid dreams (20 mg evening) was 2 (33.3) n (%). For the same molecule, the Abnormal physical sensation (24 mg evening) was 0 n (%), the “At least 1 adverse event” value (24 mg evening) was 6 (100) n (%) and the Dizziness (24 mg evening) was 1 (16.7) n (%). The Drowsiness (24 mg evening) was 3 (50.0) n (%), the Elevated mood (24 mg evening) was 0 n (%) and the Euphoric mood (24 mg evening) was 1 (16.7) n (%). For the same molecule, the “Eye Disorders” value (24 mg evening) was 2 (33.3) n (%), the Fatigue (24 mg evening) was 0 n (%) and the Feeling abnormal (24 mg evening) was 1 (16.7) n (%). For the same molecule, the Floating feeling (24 mg evening) was 1 (16.7) n (%), the “Gastro-intestinal Disorders” value (24 mg evening) was 0 n (%) and the Hangover effect (24 mg evening) was 0 n (%). For the same molecule, the Headache (24 mg evening) was 6 (100) n (%), the Indifference (24 mg evening) was 0 n (%) and the “Injury, Poisoning and Procedural Complications” value (24 mg evening) was 0 n (%). The Insomnia (24 mg evening) was 1 (16.7) n (%), the Intoxication (24 mg evening) was 0 n (%) and the Irritability (24 mg evening) was 0 n (%). For the same molecule, the Lethargy (24 mg evening) was 1 (16.7) n (%), the “Nervous System Disorders” value (24 mg evening) was 6 (100) n (%) and the Paraesthesia (24 mg evening) was 1 (16.7) n (%). The Paraesthesia oral (24 mg evening) was 0 n (%), the Paraesthesia tongue (24 mg evening) was 0 n (%) and the “Psychiatric Disorders” value (24 mg evening) was 4 (66.7) n (%). For the same molecule, the Racing thoughts (24 mg evening) was 1 (16.7) n (%), the Relaxed (24 mg evening) was 0 n (%) and the Sensory disturbance (24 mg evening) was 0 n (%). The Vision blurred (24 mg evening) was 1 (16.7) n (%), the Visual disturbance (24 mg evening) was 0 n (%) and the Vivid dreams (24 mg evening) was 2 (33.3) n (%). The Abnormal physical sensation (any dose) was 2 (9.1) n (%), the “At least 1 adverse event” value (any dose) was 19 (86.4) n (%) and the Dizziness (any dose) was 2 (9.1) n (%). The Drowsiness (any dose) was 7 (31.8) n (%), the Elevated mood (any dose) was 6 (27.3) n (%) and the Euphoric mood (any dose) was 8 (36.4) n (%). For the same molecule, the “Eye Disorders” value (any dose) was 9 (40.9) n (%), the Fatigue (any dose) was 2 (9.1) n (%) and the Feeling abnormal (any dose) was 4 (18.2) n (%). The Floating feeling (any dose) was 2 (9.1) n (%), the “Gastro-intestinal Disorders” value (any dose) was 4 (18.2) n (%) and the Hangover effect (any dose) was 2 (9.1) n (%). For the same molecule, the Headache (any dose) was 10 (45.5) n (%), the Indifference (any dose) was 2 (9.1) n (%) and the “Injury, Poisoning and Procedural Complications” value (any dose) was 2 (9.1) n (%). For the same molecule, the Insomnia (any dose) was 2 (9.1) n (%), the Intoxication (any dose) was 2 (9.1) n (%) and the Irritability (any dose) was 2 (9.1) n (%). The Lethargy (any dose) was 3 (13.6) n (%), the “Nervous System Disorders” value (any dose) was 16 (72.7) n (%) and the Paraesthesia (any dose) was 2 (9.1) n (%). The Paraesthesia oral (any dose) was 2 (9.1) n (%), the Paraesthesia tongue (any dose) was 2 (9.1) n (%) and the “Psychiatric Disorders” value (any dose) was 15 (68.2) n (%). For the same molecule, the Racing thoughts (any dose) was 4 (18.2) n (%), the Relaxed (any dose) was 9 (40.9) n (%) and the Sensory disturbance (any dose) was 3 (13.6) n (%). The Vision blurred (any dose) was 4 (18.2) n (%), the Visual disturbance (any dose) was 4 (18.2) n (%) and the Vivid dreams (any dose) was 11 (50.0) n (%). The Tolerability (single doses) was “Single doses up to 16 mg were generally well tolerated”.
